From patent US7384949B2, “Thieno(3,2-d)pyrimidines and furano(3,2-d)pyrimidines and their use as purinergic receptor antagonists” (Vernalis Research Limited, priority 2001, dated 2008)

Key:
[1] = target: human adenosine A2A receptors (Homo sapiens, UniProt P29274); assay: in vitro binding to human adenosine A2A receptors, displacement of [3H]-CGS 21680; conditions: hA2A receptors, radioligand [3H]-CGS 21680
Text: Adenosine Receptor Binding Binding Affinities at hA2A Receptors

[2] = test system: catalepsy; conditions: cited from earlier work
[3] = test system: Parkinsonian patients; conditions: cited from earlier work

human adenosine A2A receptors, sequence (P29274 whole entry): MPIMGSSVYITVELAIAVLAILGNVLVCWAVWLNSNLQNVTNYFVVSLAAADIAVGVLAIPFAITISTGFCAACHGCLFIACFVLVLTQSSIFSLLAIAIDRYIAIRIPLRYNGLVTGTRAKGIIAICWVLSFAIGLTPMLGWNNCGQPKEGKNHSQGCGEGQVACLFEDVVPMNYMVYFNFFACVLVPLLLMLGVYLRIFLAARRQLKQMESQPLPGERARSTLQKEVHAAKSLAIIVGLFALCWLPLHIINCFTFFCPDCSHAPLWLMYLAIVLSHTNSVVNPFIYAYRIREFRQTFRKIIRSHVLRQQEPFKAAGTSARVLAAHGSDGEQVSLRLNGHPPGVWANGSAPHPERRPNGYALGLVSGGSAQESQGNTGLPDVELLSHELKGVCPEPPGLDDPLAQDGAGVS

| Ki [1] [nM] | SMILES | further results |
| --- | --- | --- |
| 14 | Nc1nc(-c2ccco2)c2sccc2n1 [Example 79, 4-(2-furyl)thieno[3,2-d]pyrimidine-2-amine] |  |
| 1 | CCc1nc(-c2nc(C)cs2)c2sccc2n1 [Example 80, 2-ethyl-4-(4-methyl-2-thiazolyl)thieno[3,2-d]pyrimidine] |  |
| 2 | CCc1nc(-c2nccs2)c2sccc2n1 [Example 82, 2-ethyl-4-(2-thiazolyl)thieno[3,2-d]pyrimidine] |  |
| 20 | O=C(NCCNc1nc(-c2ccco2)c2sccc2n1)OCc1ccccc1 [Example 89, benzyl (2-(4-(2-furyl)thieno[3,2-d]pyrimidine-2-ylamino)ethyl)carbamate] |  |
| 5 | Cc1cnc(-c2nc(N(C)C)nc3ccsc23)s1 [Example 104, N,N-dimethyl-4-(5-methyl-2-thiazolyl)thieno[3,2-d]pyrimidine-2-amine] |  |
| 6 | Cc1nc(-c2nc(N(C)C)nc3ccsc23)sc1C [Example 105, N,N-dimethyl-4-(4,5-dimethyl-2-thiazolyl)thieno[3,2-d]pyrimidine-2-amine] |  |
| 35 | Nc1nc(-c2nccs2)c2sccc2n1 [Example 110, 4-(2-thiazolyl)thieno[3,2-d]pyrimidine-2-amine] |  |
| 1 | CC(C)c1nc(-c2nccs2)c2sccc2n1 [Example 113, 2-isopropyl-4-(2-thiazolyl)thieno[3,2-d]pyrimidine] |  |
| 3 | CC(C)(C)c1nc(-c2nccs2)c2sccc2n1 [Example 139, 2-tert-butyl-4-(2-thiazolyl)thieno[3,2-d]pyrimidine] |  |
| 6 | ClCCc1nc(-c2nccs2)c2sccc2n1 [Example 154, 2-(2-chloroethyl)-4-(2-thiazolyl)thieno[3,2-d]pyrimidine] |  |

The remaining lines, values behind:

| SMILES | Ki [1] [nM] | further results |
| --- | --- | --- |
| OCCNc1nc(-c2ccco2)c2scc(Br)c2n1 [Example 15, 7-bromo-4-(2-furyl)-N-(2-hydroxyethyl)thieno[3,2-d]pyrimidine-2-amine] | 11 | melting point: 173.4 to 174.4 °C |
| C=CCNc1nc(-c2ccco2)c2sccc2n1 [Example 40, N-allyl-4-(2-furyl)thieno[3,2-d]pyrimidine-2-amine] | 19 | melting point: 101 to 102 °C |
| CN(C)c1nc(-c2nccs2)c2sccc2n1 [Example 65, N,N-dimethyl-4-(2-thiazolyl)thieno[3,2-d]pyrimidine-2-amine] | 2 |  |
| CC(C)c1nc(-c2ccccn2)c2sccc2n1 [Example 70, 2-isopropyl-4-(2-pyridyl)thieno[3,2-d]pyrimidine] | 4 |  |
| COCCNc1nc(-c2ccco2)c2scc(Br)c2n1 [Example 71] | 8 | melting point: 65 to 65.4 °C |
| CCCn1c(=O)c2c(nc(/C=C/c3ccc(OC)c(OC)c3)n2C)n(CCC)c1=O [KF 17837, (E)-8-(3,4-dimethoxystyryl)-1,3-dipropyl-7-methylxanthine] |  | anticataleptic effects of a subthreshold dose of L-DOPA plus benserazide ([2]; in vivo): potentiated; catalepsy induced by haloperidol and reserpine ([2]; in vivo): reduced; cataleptic responses induced by intracerebroventricular CGS 21680 ([2]; oral administration): significantly ameliorated |
| Cn1c(=O)c2[nH]cnc2n(C)c1=O [theophylline, 1,3-dimethylxanthine] |  | mean objective disability scores ([3]; 15 Parkinsonian patients, up to 12 weeks, 150 mg/day): significant improvements; patients reporting moderate or marked subjective improvement ([3]; of 15 Parkinsonian patients, up to 12 weeks, 150 mg/day): 11; serum theophylline levels ([3]; slow release oral preparation 150 mg/day, after one week): 4.44 mg/L |
